Experimental data reported in patent publication US6362208B1, “Anilide compounds and drugs containing the same” (Kowa Company, Ltd., priority 1997, dated 2002).

Key:
[1] = target: T1, ACAT, small intestine-derived enzyme (Oryctolagus cuniculus, UniProt G1SFD9); experiment: ACAT inhibitory action, small intestine-derived enzyme; assay type: biochemical; settings: rabbit small intestine enzyme solution, 14C-Oleoyl-CoA, 37° C., 3 minutes
T1 sequence (G1SFD9 1-524): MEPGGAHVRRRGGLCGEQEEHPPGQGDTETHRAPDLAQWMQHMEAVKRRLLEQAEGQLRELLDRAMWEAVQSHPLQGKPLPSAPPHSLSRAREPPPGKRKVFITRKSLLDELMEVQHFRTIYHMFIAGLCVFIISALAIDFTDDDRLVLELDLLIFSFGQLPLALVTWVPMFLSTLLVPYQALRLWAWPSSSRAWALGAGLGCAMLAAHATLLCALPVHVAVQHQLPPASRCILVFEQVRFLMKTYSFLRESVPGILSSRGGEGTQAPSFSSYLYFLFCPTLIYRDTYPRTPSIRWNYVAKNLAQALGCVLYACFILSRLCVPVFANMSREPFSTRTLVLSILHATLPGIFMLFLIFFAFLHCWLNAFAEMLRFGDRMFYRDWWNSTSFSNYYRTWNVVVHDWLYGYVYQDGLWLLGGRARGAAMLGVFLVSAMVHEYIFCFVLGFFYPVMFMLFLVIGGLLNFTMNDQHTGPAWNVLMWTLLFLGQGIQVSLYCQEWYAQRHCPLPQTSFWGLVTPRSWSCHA
Experimental: (§1) In a conventional manner, microsome was prepared from the thoracic aorta of a rabbit fed with a 1% cholesterol diet for 8 weeks, which was then suspended in 0.15 M phosphate buffer, pH 7.4, to prepare an enzyme solution. An enzyme solution was prepared from a rabbit small intestine on normal diet, which was defined as an enzyme solution derived from small intestine.
(§2) 10 μl of an enzyme solution was added to the resulting solution for reaction at 37° C. for […] (small intestine-derived enzyme solution was subjected to reaction for 3 minutes). Subsequently, the reaction was terminated by adding 3 ml of chloroform/methanol (2/1) and 0.5 ml of 0.04 N hydrochloric acid to the reaction solution, to extract lipid. The solvent layer was concentrated and dried, which was then dissolved in hexane and spotted on a TLC plate (manufactured by Merck, Co.). The plate was eluted with hexane:ether:acetic acid (75:25:1). The radioactivity of the resulting cholesterol ester fraction was assayed by BAS 2000 (manufactured by Fuji Photo Film, Co., Ltd.). Compared with the radioactivity of a control prepared by single addition of DMSO, IC50 was determined.

ACAT in J774 cells = target: T2, ACAT in J774 cells (Mus musculus, UniProt Q61263); experiment: ACAT inhibitory action (anti-foaming action) in J774 cells, cholesterol ester formation; assay type: cell-based; settings: for IC50: J774 cells, 10 μg/ml 25-OH cholesterol, 18-hr culturing, cholesterol ester per protein, read-out: IC50 (μM) of J774-derived enzyme; for IC50 (HepG2)/IC50 (J774): ratio HepG2 / J774
T2 construct: J774 cells or HepG2 cells were inoculated on a 24-well plate; endogenous in cells; host or cells: J774 cells
T2 sequence (Q61263 1-540): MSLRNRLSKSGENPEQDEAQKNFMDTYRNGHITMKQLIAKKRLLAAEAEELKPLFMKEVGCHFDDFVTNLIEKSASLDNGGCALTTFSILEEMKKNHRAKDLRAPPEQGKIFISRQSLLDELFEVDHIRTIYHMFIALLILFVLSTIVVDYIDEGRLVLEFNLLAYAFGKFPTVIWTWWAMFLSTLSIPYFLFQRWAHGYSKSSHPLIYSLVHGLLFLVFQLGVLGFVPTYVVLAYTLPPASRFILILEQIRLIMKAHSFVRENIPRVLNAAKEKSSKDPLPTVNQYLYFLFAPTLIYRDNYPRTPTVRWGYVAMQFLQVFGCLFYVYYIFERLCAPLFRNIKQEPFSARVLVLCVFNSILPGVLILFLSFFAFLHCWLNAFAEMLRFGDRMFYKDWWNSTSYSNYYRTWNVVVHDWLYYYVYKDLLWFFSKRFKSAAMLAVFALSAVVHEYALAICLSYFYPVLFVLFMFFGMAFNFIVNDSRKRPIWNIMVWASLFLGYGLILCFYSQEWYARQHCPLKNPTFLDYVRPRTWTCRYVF
Experimental: (§3) J774 cells or HepG2 cells were inoculated on a 24-well plate; J774 cells and HepG2 cells were cultured in DMEM and MEM culture broths (each of the broths containing 10% calf fetus serum), respectively, in a 5% CO2 incubator at 37° C. for 24 hours. […] After discarding the culture media, the resulting cultures were rinsed twice with PBS and extracted with 1.5 ml of hexane:isopropanol (3:2), for concentration and drying. The extracts were dissolved in isopropanol containing 0.2 ml of 10% Triton X-100, to assay total cholesterol (TC) and free cholesterol (FC) by using Cholesterol E Test WAKO (manufactured by Wako Pure Chemicals, Co.) and Free Cholesterol E Test Wako (manufactured by Wako Pure Chemicals, Co.). […] Based on the difference between TC and FC, cholesterol ester was calculated per protein, to determine IC50, compared with the calculated control IC50 value.

[2] = target: ACAT, vascular wall-derived enzyme (Oryctolagus cuniculus, UniProt G1SUQ0); experiment: ACAT inhibitory action, vascular wall-derived enzyme (microsome from thoracic aorta of cholesterol-fed rabbit); assay type: biochemical; settings: 14C-Oleoyl-CoA, 37° C.
ACAT, vascular wall-derived enzyme, sequence (G1SUQ0 entry or part of it): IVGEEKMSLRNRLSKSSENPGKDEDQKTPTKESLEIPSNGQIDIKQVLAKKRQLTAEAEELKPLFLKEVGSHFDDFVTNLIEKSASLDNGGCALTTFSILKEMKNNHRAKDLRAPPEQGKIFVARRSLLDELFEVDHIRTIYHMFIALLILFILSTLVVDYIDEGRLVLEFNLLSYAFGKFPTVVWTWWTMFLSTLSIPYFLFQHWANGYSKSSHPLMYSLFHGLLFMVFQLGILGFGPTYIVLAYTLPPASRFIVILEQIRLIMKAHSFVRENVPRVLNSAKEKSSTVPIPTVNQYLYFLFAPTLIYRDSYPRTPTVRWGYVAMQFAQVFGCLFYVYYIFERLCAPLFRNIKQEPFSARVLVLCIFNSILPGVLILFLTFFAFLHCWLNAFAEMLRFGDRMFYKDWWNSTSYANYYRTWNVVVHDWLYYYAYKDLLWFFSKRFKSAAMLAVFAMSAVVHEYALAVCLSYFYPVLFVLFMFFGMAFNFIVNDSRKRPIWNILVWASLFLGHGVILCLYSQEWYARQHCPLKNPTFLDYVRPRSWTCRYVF
Experimental: as §1, §2

ACAT in HepG2 cells = experiment: ACAT inhibitory action in HepG2 cells, cholesterol ester formation; assay type: cell-based; settings: 10 μg/ml 25-OH cholesterol, 18-hr culturing, cholesterol ester per protein, read-out: IC50 (μM) of HepG2-derived enzyme
Experimental: as §3

| IC50 (ACAT in J774 cells) | IC50 (HepG2)/IC50 (J774) (ACAT in J774 cells) | IC50 (ACAT in HepG2 cells) | melting point | Compound | IC50 [1] | IC50 [2] |
| --- | --- | --- | --- | --- | --- | --- |
| 0.26 µM | 7.3 | 1.9 µM | 102 to 104 °C | CC(C)c1cccc(C(C)C)c1NC(=O)CCCCCSc1nc2cc(OCc3ccccc3)ccc2o1 [Example 29, 6-(5-benzyloxybenzoxazol-2-ylthio)-N-(2,6-diisopropylphenyl)hexanamide] | – | – |
| 0.6 µM | 13.5 | 8.15 µM | 104 to 106 °C | COC(=O)c1ccc2oc(SCCCCCC(=O)Nc3c(C(C)C)cccc3C(C)C)nc2c1 [Example 34, 6-(5-methoxycarbonylbenzoxazol-2-ylthio)-N-(2,6-diisopropylphenyl)hexanamide] | – | – |
| 0.098 µM | 303.4 | 29.8 µM | 118 to 119 °C | COC(=O)c1cccc2nc(SCCCCCC(=O)Nc3c(C(C)C)cccc3C(C)C)oc12 [Example 46, 6-(7-methoxycarbonylbenzoxazol-2-ylthio)-N-(2,6-diisopropylphenyl)hexanamide] | – | – |
| 0.012 µM | 7.4 | 0.089 µM | 82 to 84 °C | CC(C)c1cccc(C(C)C)c1NC(=O)CCCCCCCCSc1nc2cccc(C(F)(F)F)c2o1 [Example 75, 9-(7-trifluoromethylbenzoxazol-2-ylthio)-N-(2,6-diisopropylphenyl)nonanamide] | – | – |
| 1.64 µM | 6.1 | 10 µM | 174 to 176 °C | CC(C)c1cccc(C(C)C)c1NC(=O)CCCCCSc1nc2cccc(-c3cc[nH]n3)c2o1 [Example 88, 6-[7-(pyrazol-3-yl)benzoxazol-2-ylthio]-N-(2,6-diisopropylphenyl)hexanamide] | – | – |

| Compound | IC50 (ACAT in J774 cells) | IC50 (HepG2)/IC50 (J774) (ACAT in J774 cells) | IC50 (ACAT in HepG2 cells) | melting point | IC50 [1] | IC50 [2] |
| --- | --- | --- | --- | --- | --- | --- |
| CCCCCCCCCN(CC(C)(C)C)C(=O)N[C@H]1CCCC[C@@H]1OC(=O)CCNC(=O)C1OC(C)(C)OCC1(C)C (stereo partly drawn) [Control 3, N-(2,2,5,5-tetramethyl-1,3-dioxan-4-ylcarbonyl)-β-alanine 2(S)-[N′-(2,2-dimethylpropyl)-N′-nonylureido]-1(S)-cyclohexyl ester, reference compound] | 0.32 µM | 4.3 | – | – | 0.056 µM | – |
| CCCCCCCN(CCCCCSc1nc(-c2ccccc2)c(-c2ccccc2)[nH]1)c1nc2ccccc2o1 [Control 4, reference compound] | 0.12 µM | 6.3 | 0.75 µM | – | 0.037 µM | 0.026 µM |
